Test results: ChEMBL document CHEMBL1148227, “Biosynthesis of vitamin B6: direct identification of the product of the PdxA-catalyzed oxidation of 4-hydroxy-l-threonine-4-phosphate using electrospray ionization mass spectrometry” (Bioorg Med Chem Lett, 2004)

Key:
Format in all cases: ADME
Conditions in all cases: buffer
[1] = Half life at pH 7.8
[2] = Half life at pH 8.1
[3] = Half life at pH 5.9

SMILES | half-life [1] [min] | half-life [2] [min] | half-life [3] [min]
NC(C(=O)O)C(=O)COP(=O)(O)O (stereo not drawn) | 10 |  | 
CC(=O)C(N)C(=O)O (stereo not drawn) |  | 15.2 | 8.57
